For 33 compounds, melting point results are on record in patent publication US6413947B1, “Anilide derivative, production and use thereof” (Takeda Chemical Industries, Ltd., priority 1997, dated 2002).

What is called melting point is the temperature, or range, at which the solid turns liquid.

Structures can show the parent of a compound that is named as a salt.

In turn, `Cc1ccc(-c2ccc3c(c2)C=C(C(=O)Nc2ccc(CN4CCC(O)CC4)cc2)CC3)cc1` [Compound 49, N-[4—(4-hydroxypiperidinomethyl)phenyl]-7—(4-methylphenyl)-3,4-dihydronaphthalene-2-carboxamide] yielded a melting point of 223 to 224 °C.

The compound `CN1CCC(C(=O)Nc2ccc(CN(C)C3CCOCC3)cc2)=Cc2cc(-c3ccc(C(F)(F)F)cc3)ccc21` [Compound 308, 1-methyl-N-[4-[[N-methyl-N-(tetrahydropyran-4-yl)amino]-methyl]phenyl]-7-(4-trifluoromethylphenyl)-2,3-dihydro-1-benzoazepine-4-carboxamide] gave a melting point of 187.5 to 188.5 °C.

For `Cc1ccc(-c2cc3ccc(C(=O)Nc4ccc(CN(C)C5CCOCC5)cc4)cc3o2)cc1` [Compound 278, 2-(4-methylphenyl)-N-[4-[N-methyl-N-(tetrahydropyran-4-yl)aminomethyl]phenyl]benzofuran-6-carboxamide], the melting point lay in the range of 224 to 227 °C.

Take `Cc1ccc(-c2ccc3c(c2)C=C(C(=O)Nc2ccc(C[S+]([O-])Cc4ccccc4)cc2)CCO3)cc1` (stereo not drawn) [Compound 109, N-(4—(benzylsulfinylmethyl)phenyl)-7—(4-methylphenyl)-2,3-dihydro-1-benzoxepine-4-carboxamide]: the melting point lay within 208 to 209 °C.

Compound `Cc1ccc(-c2ccc3c(c2)C=C(C(=O)Nc2ccc(C(O)c4ccccn4)cc2)CCO3)cc1` (stereo not drawn) [Compound 166, N-[4-[hydroxy(2-pyridyl)-methyl]phenyl]-7—(4-methylphenyl)-2,3-dihydro-1-benzoxepine-4-carboxamide] came in with a melting point of 215 to 217 °C.

`Cc1ccc(-c2cccc(/C=C/C(=O)Nc3ccc(Cn4ccnc4)cc3)c2)cc1` [Compound 65, (E)-N-[4-[(imidazol-1-yl)methyl]phenyl]-3—(4-methylphenyl)cinnamamide]: the melting point was 198 to 200 °C.

Turning to `Cc1ccc(-c2ccc3c(c2)C=C(C(=O)Nc2ccc(C[N+]4(C)CCCCC4)cc2)CCO3)cc1` (as salt: iodide) [Compound 96, 1—(N-(7—(4-methylphenyl)-2,3-dihydro-1-benzoxepin-4-carbonyl)-4-aminobenzyl)-1-methylpiperidinium iodide], the melting point was 227 to 228 °C (dec.).

The compound `Cc1ccc(-c2cccc(/C=C/C(=O)Nc3ccc(CN4CCCC(O)C4)cc3)c2)cc1` (stereo not drawn) [Compound 67, (E)-N-[4—(3-hydroxypiperidino-methyl)phenyl]-3—(4-methylphenyl)cinnamamide] showed a melting point of 132 to 134 °C.

Compound `Cc1ccc(-c2ccc3c(c2)C=C(C(=O)Nc2ccc(C[N+]4(C)CCCCC4)cc2)CC3)cc1` (as salt: iodide) [Compound 16, 1-methyl-1-[4-[7—(4-methylphenyl)-3,4-dihydronaphthalene-2-carboxamido]benzyl]piperidinium iodide] returned a melting point of 202 to 204 °C.

In the case of `COc1ccc(CCN(C)Cc2ccc(NC(=O)/C=C/c3cccc(-c4ccc(C)cc4)c3)cc2)cc1OC.Cl`, the melting point lay within 214 to 217 °C.

`COCCN(CCOC)Cc1ccc(NC(=O)C2=Cc3cc(-c4ccc(C)cc4)ccc3OCC2)cc1` [Compound 311, N-(4-((N,N-bis(2-methoxyethyl)amino)methyl)phenyl)-7-(4-methylphenyl)-2,3-dihydro-1-benzoxepine-4-carboxamide] showed a melting point of 110 to 112 °C.

In turn, `Cc1csc(-c2ccc3c(c2)C=C(C(=O)Nc2ccc(CN(C)C4CCOCC4)cc2)CCO3)c1` [Compound 292, N-[4-[N-methyl-N-(tetra-hydropyran-4-yl)aminomethyl]phenyl]-7-(4-methyl-2-thienyl)-2,3-dihydro-1-benzoxepine-4-carboxamide] returned a melting point of 147 to 148 °C.

For `Cc1ccc(-c2ccc3c(c2)C=C(C(=O)Nc2ccc(CN(CCO)CCO)cc2)CC3)cc1` [Compound 51, N-[4-[N,N-bis(2-hydroxyethyl)-aminomethyl]phenyl]-7—(4-methylphenyl)-3,4-dihydronaphthalene-2-carboxamide], the melting point is 150 to 151 °C.

For the compound `O=C(Nc1ccc(CCN2CCCCC2)cc1)C1=Cc2cc(-c3ccccc3)ccc2CC1` [Compound 9, 7-phenyl-N-[4—(2-piperidinoethyl)phenyl]-3,4-dihydro-naphthalene-2-carboxamide], the melting point fell in the range of 157 to 159 °C.

`O=C(Nc1ccc(CN2CCCCC2)cc1)C1=Cc2cc(-c3ccccc3)ccc2CC1` [Compound 4, 7-phenyl-N-[4—(piperidinomethyl)phenyl]-3,4-dihydronaphthalene-2-carboxamide]: the melting point was 163 to 164 °C.

`O=C(Nc1ccc(CN2CCCCC2)cc1)C1=Cc2cc(C3CCCCC3)ccc2CC1` [Compound 1, 7-cyclohexyl-N-[4—(piperidinomethyl)-phenyl]-3,4-dihydronaphthalene-2-carboxamide]: the melting point was in the range of 180 to 181 °C.

In the case of `CCc1ccc(-c2ccc3c(c2)C=C(C(=O)Nc2ccc(CN(C)C4CCOCC4)cc2)CCO3)cc1` [Compound 177, N-[4-[N-methyl-N-(tetrahydropyran-4-yl)aminomethyl]phenyl]-7—(4-ethylphenyl)-2,3-dihydro-1-benzoxepine-4-carboxamide], the melting point is 181 to 182 °C.

In turn, `CC(C)c1ccc(-c2ccc(/C=C/C(=O)Nc3ccc(CN(C)C4CCOCC4)cc3)s2)cc1` [Compound 274, (E)-3-[5-(4-isopropylphenyl)thiophen-2-yl]-N-[4-[N-methyl-N-(tetrahydropyran-4-yl)aminomethyl]-phenyl]acrylamide] displayed a melting point of 187 to 189 °C.

Consider `Cc1ccc(-c2cccc(/C=C/C(=O)Nc3ccc(-c4ccccn4)cc3)c2)cc1` [Compound 188, (E)-N-[4—(2-pyridyl)phenyl]-3—(4-methylphenyl)cinnamamide], for which the melting point was in the range of 220 to 222 °C.

In turn, `Cc1ccc(-c2ccc3c(c2)C=C(C(=O)Nc2ccc(CNC(CO)CO)cc2)CC3)cc1` [Compound 48, N-[4-[(1,3-dihydroxy-2-propyl)aminomethyl]phenyl]-7—(4-methylphenyl)-3,4-dihydronaphthalene-2-carboxamide] returned a melting point of 189 to 193 °C.

Regarding `Cc1ccc(-c2ccc3c(c2)C=C(C(=O)Nc2ccc(-c4cccc[n+]4[O-])cc2)CCO3)cc1` [Compound 160, N-[4—(1-oxidopyridin-2-yl)phenyl]-7—(4-methylphenyl)-2,3-dihydro-1-benzoxepine-4-carboxamide], the melting point is 254 °C (dec.).

`Cc1ccc(-c2cccc(/C=C/C(=O)Nc3ccc(CN4CCCCC4)cc3)c2)cc1` [Compound 70, (E)-N-[4—(piperidinomethyl)phenyl]-3—(4-methylphenyl)cinnamamide] had a melting point of 154 to 156 °C.

Compound `Cc1ccc(-c2ccc3c(c2)C=C(C(=O)Nc2ccc(C(O)c4ccccn4)cc2)C(C)O3)cc1` (stereo not drawn) [Compound 202, N-[4-[hydroxy(2-pyridyl)methyl]-phenyl]-6—(4-methylphenyl)-2-methyl-2H-1-benzopyran-3-carboxamide] yielded a melting point of 202 to 205 °C.

On to `Cc1ccc(-c2ccc3c(c2)C=C(C(=O)Nc2ccc(CNc4ccccn4)cc2)CCO3)cc1` [Compound 322, N-[4-[(pyrid-2-yl)aminomethyl]phenyl]-7-(4-methylphenyl)-2,3-dihydro-1-benzoxepine-4-carboxamide], for which the melting point fell in the range of 189 to 190 °C.

`Cc1ccc(-c2ccc3c(c2)C=C(C(=O)Nc2ccc(CN4CCCCC4)cc2)CCS3)cc1` [Compound 93, 7—(4-methylphenyl)-N-(4-piperidinomethylphenyl)-2,3-dihydro-1-benzothiepine-4-carboxamide]: the melting point fell in the range of 203 to 204 °C.

In the case of `Cc1ccc(-c2ccc3c(c2)C=C(C(=O)Nc2ccc(CCN4CCCCC4)cc2)CCO3)cc1` [Compound 99, N-(4—(2-piperidinoethyl)phenyl)-7—(4-methylphenyl)-2,3-dihydro-1-benzoxepine-4-carboxamide], the melting point lay in the range of 201 to 202 °C.

Take `Cc1ccc(-c2cccc(/C=C/C(=O)Nc3ccc(-c4cccc[n+]4[O-])cc3)c2)cc1` [Compound 189, (E)-N-[4—(1-oxidopyridin-2-yl)phenyl]-3—(4-methylphenyl)cinnamamide]: the melting point lay within 240 to 241 °C.

In turn, `COCC(COC)N(C)Cc1ccc(NC(=O)C2=Cc3cc(-c4ccc(C)cc4)ccc3OCC2)cc1` [Compound 313, N-(4-((N-(1,3-dimethoxypropan-2-yl)-N-methylamino)methyl)phenyl)-7-(4-methylphenyl)-2,3-dihydro-1-benzoxepine-4-carboxamide] had a melting point of 128 to 132 °C.

The compound `Cc1ccc(-c2ccc3c(c2)C=C(C(=O)Nc2ccc(Cc4ncccc4O)cc2)CCO3)cc1` [Compound 174, N-[4—(3-hydroxypyridin-2-ylmethyl)phenyl]-7—(4-methylphenyl)-2,3-dihydro-1-benzoxepine-4-carboxamide] came in with a melting point of 285 to 288 °C.

For the compound `Cc1ccc(S(=O)(=O)N2CCC(c3cccc4c3CCCC(C(=O)Nc3ccc(CN(C)C5CCOCC5)cc3)=C4)CC2)cc1` [Compound 289, 4-[1-(4-methylphenylsulfonyl)piperidin-4-yl]-N-(4-(N-methyl-N-(tetrahydropyran-4-yl)aminomethyl]phenyl]-6,7-dihydro-5H-benzocycloheptene-8-carboxamide], the melting point was 175 to 176 °C.

Consider `Cc1ccc(-c2ccc3c(c2)C=C(C(=O)Nc2ccc(C[N+](C)(C)C4CCOCC4)cc2)CCS3)cc1.[I-]` [Compound 241, dimethyl-(N-(7-(4-methylphenyl)-2,3-dihydro-1-benzothiepine-4-carbonyl)-4-aminobenzyl)-N-(4-tetrahydropyranyl)ammonium iodide], for which the melting point was 220 to 222 °C (dec.).

Consider `CN(Cc1ccc(NC(=O)C2=Cc3cc(-c4ccc(Cl)cc4)ccc3OCC2)cc1)C1CCOCC1` [Compound 181, N-[4-[N-methyl-N-(tetrahydropyran-4-yl)aminomethyl]-phenyl]-7—(4-chlorophenyl)-2,3-dihydro-1-benzoxepine-4-carboxamide], for which the melting point is 191 to 192 °C.

As to `COc1ccc[n+]([O-])c1C(O)c1ccc(NC(=O)C2=Cc3cc(-c4ccc(C)cc4)ccc3OCC2)cc1` (stereo not drawn) [Compound 170, N-[4-[hydroxy(3-methoxy-1-oxidopyridin-2-yl)methyl]phenyl]-7—(4-methylphenyl)-2,3-dihydro-1-benzoxepine-4-carboxamide], the melting point was 242 °C (dec.).
